Data published in patent publication US4542210A, “1-β-D-Arabinofuranosyl-(E)-5-(2-halogenovinyl)-uracil-5'-phosphate, preparation thereof and use thereof” (Yamasa Shoyu Kabushiki Kaisha, priority 1981, dated 1985).
≈ marks a conversion by molar mass, not a printed value. Where a name gives a salt, the structure may show the parent alone. Read-outs that look alike come from different tables or passages of the source.

Experiments:
HSV-2-MS = experiment: Antiviral activity in human embryonic lung fibroblasts (method of Sidwell et al), HSV-2-MS; assay type: cell-based, herpes simplex virus type 2 strain MS; set-up: MIC: minimum inhibitory concentration at which HSV induced cytopathogenic effects were depressed more than 50%: unit not given here
Experimental: (§1) According to the method of Sidwell et al (Applied Microbiology, 22, (5), 797 (1971)), with the use of human embryonic lung fibroblasts, the antiviral activities of BVAUP and CVAUP were tested, with BVAU, CVAU and 5-iodo-2'-deoxyuridine (IDU) as controls.
(§2) effects were depressed more than 50%;
^2 HSV2-MS: herpes simplex virus type 2 strain MS

HSV-1-VR-3 = experiment: Antiviral activity in human embryonic lung fibroblasts (method of Sidwell et al), HSV-1-VR-3; assay type: cell-based, herpes simplex virus type 1 strain VR3; set-up: MIC: minimum inhibitory concentration at which HSV induced cytopathogenic effects were depressed more than 50%: unit not given here
Experimental: as §1, §2
^1 HSV1-VR-3: herpes simplex virus type 1 strain VR3

[1] = system: RE strain of HSV (type 1); experiment: Ulcerative herpetic keratitis in pigmented rabbits, ointment treatment; assay type: in vivo, RE strain; pigmented rabbits; set-up: Effect (lesion inhibition): unit not given here; settings: for Effect (lesion inhibition): control 0; for % score: control 100
Experimental: (1) Pigmented rabbits, weighing between 2.0 and 3.0 kg, were anesthetised with intravenous pentobarbital sodium (30 mg/kg) and given a retrobulbar injection of 0.5 ml of 1% procaine. For inoculation a suspension of the RE strain of HSV (type 1) was drawn into a fine glass capillary tube (British Journal of Ophthalmology, Vol. 63, No. 6, 425-428 (1979).
After inoculation the eye was left open for 30 seconds and then the lids were closed with cellophane tape. The same procedure was repeated on the other eye. In one group of 3 rabbits the right eyes were treated with 1% BVAUP ointment and the left eyes with 1% BVAU ointment, or vice versa. In another group 3 eyes received no treatment as controls. The treatment was started 48 hours after inoculation and continued every 2 hours during the daytime 5 times a day for 4 days. The eyes were examined 48 hours after inoculation and then every 24 hours with a photo-slit lamp after applying 1% Bengal rose. Each inoculation site was scored according to the extent of the circumference infected.
The total daily score for each eye was calculated and expressed as a percentage of the score (percentage score) immediately before treatment. The therapeutic efficacies of BVAUP and BVAU against ulcerative herpetic keratitis were compared by calculating their average percentage scores.
(2) 0.3% BVAUP ointment and 3% BVAUP ointment were respectively prepared, and were subjected to the similar pharmacological test as shown in (1).

Solubility in water = assay type: physicochemical
[2] = Acute toxicity (LD50) in mice; settings: mouse, in vivo
type 2 herpes (HSV-2) = experiment: Antiviral activity against HSV-2 compared with HSV-1 or VZV (general statement)
[3] = 1% ointment, 5 times a day for 4 days
[4] = 1% ointment, 5 times a day for 4 days, control 97.0

Row | SMILES | MIC: minimum inhibitory concentration at which HSV induced cytopathogenic effects were depressed more than 50% (HSV-2-MS) | VR: virus rating (HSV-2-MS) | MIC: minimum inhibitory concentration at which HSV induced cytopathogenic effects were depressed more than 50% (HSV-1-VR-3) | VR: virus rating (HSV-1-VR-3) | Effect (lesion inhibition) [1, 3] | Total score per eye [1, 4] | % score [1, 3] | solubility (Solubility in water) | Effect (lesion inhibition) ([1]; 0.3% ointment) | Total score per eye ([1]; 0.3% ointment, control 88.7) | % score ([1]; 0.3% ointment) | Effect (lesion inhibition) ([1]; 3% ointment) | % score ([1]; 3% ointment) | Total score per eye ([1]; 3% ointment, control 114.0) | LD50 ([2]; ip, intraperitoneally, read-out: LD50, intraperitoneal) | LD50 ([2]; iv, intravenously, read-out: LD50, intravenous) | antiviral activity against HSV-2 (type 2 herpes (HSV-2))
1 | O=c1[nH]c(=O)n([C@@H]2O[C@H](CO)[C@@H](O)[C@@H]2O)cc1/C=C/Br [BVAU, 1-β-D-arabinofuranosyl-(E)-5-(2-bromovinyl)uracil, reference compound] | 32 | 1.1 | 0.032 | 3.7 | 43.0 | 55.3 | 57.0% | 4 mg/mL (≈ 11.5 mM) | – | – | – | – | – | – | – | – | –
2 | O=c1[nH]c(=O)n([C@@H]2O[C@H](COP(=O)(O)O)[C@@H](O)[C@@H]2O)cc1/C=C/Br [BVAUP, 1-β-D-arabinofuranosyl-(E)-5-(2-bromovinyl)uracil-5'-phosphate] | 32 | 1.1 | 0.032 | 3.8 | 53.9 | 44.7 | 46.1% | – | 38.3 | 54.7 | 61.7% | 71.9 | 28.1% | 32.0 | 1730 mg/kg | 1610 mg/kg | lower than that against the type 1 herpes (HSV-1) or VZV
3 | O=c1[nH]c(=O)n([C@@H]2O[C@H](CO)[C@@H](O)[C@@H]2O)cc1/C=C/Cl [CVAU, 1-β-D-arabinofuranosyl-(E)-5-(2-chlorovinyl)uracil] | 100 | 0.7 | 0.032 | 3.7 | – | – | – | – | – | – | – | – | – | – | – | – | –
4 | O=c1[nH]c(=O)n([C@@H]2O[C@H](COP(=O)(O)O)[C@@H](O)[C@@H]2O)cc1/C=C/Cl [CVAUP, 1-β-D-arabinofuranosyl-(E)-5-(2-chlorovinyl)uracil-5'-phosphate] | 320 | 0.5 | 0.032 | 3.7 | – | – | – | – | – | – | – | – | – | – | – | – | –
5 | O=c1[nH]c(=O)n([C@H]2C[C@H](O)[C@@H](CO)O2)cc1I [IDU, 5-iodo-2'-deoxyuridine] | 3.2 | 2.2 | 3.2 | 2.4 | – | – | – | – | – | – | – | – | – | – | – | – | –
6 | O=c1[nH]c(=O)n([C@@H]2O[C@H](COP(=O)(O)O)[C@@H](O)[C@@H]2O)cc1/C=C/Br [disodium salt of 1-β-D-arabinofuranosyl-(E)-5-(2-bromovinyl)uracil-5'-phosphate] | – | – | – | – | – | – | – | ~500 mg/mL | – | – | – | – | – | – | – | – | –
